Key:
[1] = aqueous; cited from earlier work
[2] = General toxicity study of bile salt (STC) by IN delivery: clinical pathology and organ histopathology (Example 2); conditions: rat, in vivo, NOAEL for bile salt (STC) at an IN delivery, relative dose, rats; 0.75 mg / 0.298 kg
Description: Each rat was treated with two (2) IN administrations of the respective formulations in Groups A1-A5.

[3] = aqueous epinephrine, same dose by IM route; cited from earlier work

Compound | CMC [1] | also measured
C[C@H](CCC(=O)[O-])[C@H]1CC[C@H]2[C@@H]3[C@H](O)C[C@@H]4C[C@H](O)CC[C@]4(C)[C@H]3C[C@H](O)[C@]12C.[Na+] [SC, sodium cholate] | ~4 mM | –
C[C@H](CCC(=O)[O-])[C@H]1CC[C@H]2[C@@H]3CC[C@@H]4C[C@H](O)CC[C@]4(C)[C@H]3CC[C@]12C.[Na+] [SLC, sodium lithocholate] | ~1 mM | –
C[C@H](CCC(=O)NCCS(=O)(=O)[O-])[C@H]1CC[C@H]2[C@@H]3[C@H](O)C[C@@H]4C[C@H](O)CC[C@]4(C)[C@H]3C[C@H](O)[C@]12C.[Na+] [STC, sodium taurocholate] | – | NOAEL [2]: ≥ 2.5 mg/kg
CNC[C@H](O)c1ccc(O)c(O)c1 [epinephrine] | – | bioavailability (BA) based on AUC of plasma concentration, IN relative to IM [3]: approximately 5%

From patent US20230256099A1, “Safe Use of Bile Acids and Their Salts as Enhancers for Nasal Delivery of Pharmaceuticals” (priority 2020, published 2023)
